From patent US10857105B2, “Compounds and compositions for intracellular delivery of therapeutic agents” (ModernaTX, Inc., priority 2017, dated 2020)

Experiments:
[1] = Encapsulation efficiency of RNA in nanoparticle compositions (RIBOGREEN assay); format: physicochemical
Procedure, shortened: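 Lipid nanoparticles (ionisable lipid:DSPC:cholesterol:PEG-DMG 50:10:38.5:1.5 mol %) carrying N1-methylpseudouridine luciferase or hEPO mRNA diluted to about 5 μg/mL in TE, pH 7.5, with or without 2% Triton X-100, 15 min at 37° C. RiboGreen fluorescence (ex ~480, em ~520 nm) blank-subtracted; free RNA = intact/disrupted signal.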

[2] = tested on: luciferase (Luc) mRNA; assay: Luciferase expression (whole body bioluminescence) after intravenous administration to mice; format: in vivo; conditions: for Novel lipid/MC3 expression ratio, i.v.: intravenous, luciferase, 6 hr. time point, relative to MC3 formulation
Procedure, shortened: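 Mice (n=6) received lipid nanoparticle formulations carrying luciferase mRNA intravenously at 0.5 mg/kg. Whole-body bioluminescence was measured at 3, 6 and 24 h. Total flux was taken as area under the curve and expressed relative to a standard MC3 formulation.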

[3] = Particle size and polydispersity index of nanoparticle compositions (Zetasizer Nano ZS); format: physicochemical
Procedure, shortened: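 Size and PDI measured by Zetasizer Nano ZS in 1×PBS (zeta potential in 15 mM PBS). Lipid nanoparticles contained test ionizable lipid:DSPC:cholesterol:PEG-DMG at 50:10:38.5:1.5 mol % with N1-methyl-pseudouridine mRNA encoding luciferase or hEPO.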

[4] = tested on: luciferase (Luc) mRNA; assay: Luciferase expression after intramuscular administration to mice; format: in vivo; conditions: intramuscular; for Novel lipid/MC3 expression ratio, i.m. Luc: luciferase, 6 hr. time point, relative to MC3 formulation; for Total flux 6 hours after intramuscular administration, 0.01 mpk Dose: Luc mRNA
Excerpt: The numbers 1-7 in this figure correspond to MC3, Compounds 168-170, and 173-175 respectively.
FIGS. 18A and 18B show the results of luciferase expression measured upon intramuscular administration of various nanoparticle compositions to CD-1 mice at 0.01 mpk. FIG. 18A is a bar graph showing total flux at 6 hr after administration. The numbers above each bar indicate the expression ratio relative to MC3. […] Numbers 1-11 in the Figures refer to compositions containing the following: 1: MC3, 2: Compound 143, 3: Compound 49; 4: Compound 113; 5: Compound 61; 6: Compound 72; 7: Compound 75; 8: Compound 71; 9: Compound 128; 10: Compound 156; 11: Compound 157.
The numbers 1-9 in this figure correspond to MC3, and Compounds 178, 181, 182, 218, 198, 200, 233, and 239, respectively.
The total flux (measured by area under the curve, AUC) induced by administration of a formulation including a given lipid relative to that induced by administration of a formulation including MC3 was also measured for several lipids.
Sample formulations including modified luciferase (Luc) mRNA prepared and administered intramuscularly and the resulting expression and immunogenicity were evaluated simultaneously. Formulations including compounds according to Formula (I), (IA), (IB), (II), (IIa), (IIb), (IIc), (IId), (IIe), (IIf), (IIg), or (III) were prepared and administered at dose of and 0.01 mpk.

[5] = tested on: modified luciferase; assay: Luciferase expression in liver, lung, spleen and femur 6 hours after intravenous administration to mice; format: in vivo; conditions: 6 hours after intravenous 0.5 mpk, mice
Procedure, shortened: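 Nanoparticle formulations of the modified luciferase were given intravenously to mice (n=3) at 0.5 mpk. Bioluminescence was measured after 6 hours as total light flux. Standard MC3 formulation and PBS run as controls.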

[6] = Table 1A, lipid:DSPC:cholesterol:PEG-DMG 50:10:38.5:1.5 mol %
[7] = Table 1B, formulated with hEPO mRNA
[8] = Table 1E, compositions for subcutaneous administration

SMILES	EE [1, 6] [%]	Novel lipid/MC3 expression ratio, i.v. [2]	Size [3, 6] [nm]	Novel lipid/MC3 expression ratio, i.m. Luc [4]	Total Flux, Liver [5]	Total Flux, Lung [5]	Total Flux, Spleen [5]	EE [1, 7] [%]	Size [3, 7] [nm]	Size [3, 8] [nm]	Total flux 6 hours after intramuscular administration, 0.01 mpk Dose [4] [p/s]	AUC ([2]; intravenous administration (Table 3D)) [p/s*h]
CCCCCCCCCOC(=O)CCCCCCCN(CCCCCCCC(=O)OC(CCCCCCCC)CCCCCCCC)CCCNC(=O)OC [Compound 181, Heptadecan-9-yl 8-((3-((methoxycarbonyl)amino)propyl)(8-(nonyloxy)-8-oxooctyl)amino)octanoate]	88.9	0.27	78.7	0.97								
CCCCCCCCC(CCCCCCCC)OC(=O)CCCCCCCN(CCO)CCCC(=O)OC(CCCCC)CCCCCCCC (stereo not shown) [Compound 71, Heptadecan-9-yl 8-((2-hydroxyethyl)(4-oxo-4-(tetradecan-6-yloxy)butyl)amino)octanoate]	97.54	0.42	71	0.08	7.93E+08	4.86E+06	8.04E+06					
CCCCCCCCCOC(=O)CCCCCCCN(CCCCCCCC(=O)OC(CCCCCCCC)CCCCCCCC)CCCNS(C)(=O)=O [Compound 109, Heptadecan-9-yl 8-((3-(methylsulfonamido)propyl)(8-(nonyloxy)-8-oxooctyl)amino)octanoate]		0.35	81.1		8.17E+08	6.03E+06	4.81E+07	98.29	75	67.0	1.18E+08	
CCCCCCCCCOC(=O)CCCCCCCN(CCCCCCCC(=O)OC(CCCCCCCC)CCCCCCCC)CCCNc1c(NC)c(=O)c1=O [Compound 182, Heptadecan-9-yl 8-((3-((2-(methylamino)-3,4-dioxocyclobut-1-en-1-yl)amino)propyl)(8-(nonyloxy)-8-oxooctyl)amino)octanoate]	99.0	0.66	84.4	6.80								
CCCCCCCCCOC(=O)CCCCCCCN(CCCCCCCC(=O)OC(CCCCCCCC)CCCCCCCC)CC(O)CO (stereo not shown) [Compound 69, Heptadecan-9-yl 8-((2,3-dihydroxypropyl)(8-(nonyloxy)-8-oxooctyl)amino)octanoate]		0.30	77.2	0.27	2.24E+08	7.34E+05	2.54E+06			71.8	8.83E+06	
CCCCCCCCCOC(=O)CCCCCCCN(CCCCCCCC(=O)OC(CCCCCCCC)CCCCCCCC)CCCN/C(=C/[N+](=O)[O-])NC [Compound 170, Heptadecan-9-yl (E)-8-((3-((1-(methylamino)-2-nitrovinyl)amino)propyl)(8-(nonyloxy)-8-oxooctyl)amino)octanoate]		0.02	96.0	5.3								
CCCCCCCCCOC(=O)CCCCCCCN(CCCCCCCC(=O)OC(CCCCCCCC)CCCCCCCC)CCCNC(=O)CO [Compound 198, Heptadecan-9-yl 8-((3-(2-hydroxyacetamido)propyl)(8-(nonyloxy)-8-oxooctyl)amino)octanoate]	99.5	0	84.2	0.52								
CCCCCCCCCOC(=O)CCCCCCCN(CCCCCCCC(=O)OC(CCCCCCCC)CCCCCCCC)C(CO)CO [Compound 156, Heptadecan-9-yl 8-((1,3-dihydroxypropan-2-yl)(8-(nonyloxy)-8-oxooctyl)amino)octanoate]		0.60	68.1	0.06	6.51E+08	1.92E+06	1.82E+07					1.170E+011
